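96-well plates; 48 h exposure; 5 concentrations. Endpoints by linear interpolation between flanking doses. Not reached: highest tested concentration assigned. GI50: concentration for 50% inhibition of growth. At the TGI there is no net growth.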
Key:
Assay in all cases: inhibition of tumour cell growth, NCI panel, 48 h
SW-620 colon = tested on: SW-620 colon
HCC-2998 colon = tested on: HCC-2998 colon
SF-268 CNS = tested on: SF-268 CNS
COLO 205 colon = tested on: COLO 205 colon
SF-295 CNS = tested on: SF-295 CNS
NCI-H23 lung = tested on: NCI-H23 lung
HT29 colon = tested on: HT29 colon
SK-MEL-28 melanoma = tested on: SK-MEL-28 melanoma

Structure (SMILES) | GI50 (SW-620 colon) [µM] | TGI (SW-620 colon) [µM] | GI50 (HCC-2998 colon) [µM] | TGI (HCC-2998 colon) [µM] | GI50 (SF-268 CNS) [µM] | TGI (SF-268 CNS) [µM] | GI50 (COLO 205 colon) [µM] | TGI (COLO 205 colon) [µM] | GI50 (SF-295 CNS) [µM] | TGI (SF-295 CNS) [µM] | GI50 (NCI-H23 lung) [µM] | TGI (NCI-H23 lung) [µM] | GI50 (HT29 colon) [µM] | TGI (HT29 colon) [µM] | GI50 (SK-MEL-28 melanoma) [µM] | TGI (SK-MEL-28 melanoma) [µM]
Cc1cc2c(cc1Cl)SC1=NN(C)S(=O)N1S2(=O)=O (stereo not drawn) | > 100 | > 100 | > 100 | > 100 | > 100 | > 100 | > 100 | > 100 | > 100 | > 100 | > 100 | > 100 | > 100 | > 100 | > 100 | > 100
C[N+]1=C(/C=C/c2ccc(O)c3ncccc23)C(C)(C)c2ccccc21 | 2.85 | 11.1 | 2.44 | 6.73 | 2.73 | 14.1 | 2.3 | 6.11 | 2.21 | 5.24 | 2.62 | 8.54 | 3.19 | 12.6 | 4.35 | 16.4
NC(=O)COC(=O)c1c(Cl)nc2sccn12 |  | > 64.7 |  | > 100 |  | > 100 |  | > 100 |  | > 100 |  | > 100 |  | > 100 |  | > 100
Nc1nc2c(nnn2C2CC(O)C(CO)O2)c(=O)[nH]1 (stereo not drawn) | 3.74 | > 100 | 3.63 | > 92 | 7.99 | > 100 | 1.89 | 6.3 | 2.54 | > 56.3 | 4.61 | > 100 | 13.5 | > 100 | 20.4 | > 100
O=C(O)CCNC1CCCCC1 | > 100 | > 100 | > 100 | > 100 | > 100 | > 100 | > 100 | > 100 | > 100 | > 100 | > 100 | > 100 | > 100 | > 100 | > 100 | > 100
CCN(CC)C(c1ccc(N(C)C)cc1)C(c1ccc(N(C)C)cc1)N(CC)CC (stereo not drawn) |  | > 73 |  | > 73 |  | > 73 |  | > 73 |  | > 73 |  | > 73 |  | > 73 |  | > 73
Nc1nccc(-c2c(-c3ccc(F)cc3)ncn2C2CCC(O)CC2)n1 (stereo not drawn) | 13.6 | > 25 | 17.3 | > 25 | 10.2 | > 25 | 7.1 | > 25 | 17.7 | > 25 | 9.77 | > 25 | 6.8 | > 25 | 14.8 | > 25
COc1ccc2c(c1)C(=O)c1c-2n(CCCn2ccnc2)c(=O)c2cc([N+](=O)[O-])ccc12 | < 0.0111 | > 39.9 | < 0.0194 | 0.267 | < 0.01 | > 75.5 | 0.0548 | > 42.8 | < 0.01 |  | < 0.01 | < 0.01 | < 0.01 | > 100 |  | > 100
COc1ccc2c(c1)[n+](=O)c(C(=O)C/C(=N/OCCCc1ccccc1)C(=O)NC13CC4CC(CC(C4)C1)C3)c(C)n2[O-] |  | > 100 |  | > 100 |  | > 100 |  | > 100 |  | > 100 |  | > 100 |  | > 100 |  | > 100
